Reference: PMC5011342, “A high throughput drug screening assay to identify compounds that promote oligodendrocyte differentiation using acutely dissociated and purified oligodendrocyte precursor cells” (BMC Research Notes, 2016)
Where “and” joins values, the source holds several entries; their conditions need not be identical. Equal values may be shown once. Where a name gives a salt, the structure may show the parent alone. Read-outs that look alike come from different tables or passages of the source. Starred links: 1 amine or outer side, 2 acyl side, 3 side chain; linkers in the order of their positions; H or OH if unused. Positions of bridges follow the written chain, without caps; N, C: chain ends. Non-standard residues stand in square brackets, D forms with d. Residues, ends and D or L forms follow the SMILES beside them. Chains are numbered I, II in the order given. Actinocin(9to1) = Cc1c2oc3c(C)ccc(C(=O)[*:1])c3nc-2c(C(=O)[*:2])c(N)c1=O; NMeV = CN[C@H](C(=O)O)C(C)C; Sar = CNCC(=O)O

What was measured:
[1] = tested on: acutely dissociated and purified rat OPCs; test: Acute OL differentiation assay (MBP expression/cell, immunofluorescent image quantification); type: cell-based
Protocol: In order to identify compounds with the potential to promote OL differentiation in vivo and thereby enhance remyelination, we first wanted to establish an in vitro assay system that would closely mimic conditions in vivo. To do this, we started by using OPCs acutely isolated from postnatal day 6–7 (P6–7) rat brains by O4 immunopanning. […] OPCs were plated directly onto a biological substrate (PDL/laminin) in 96-well view plates at moderate density to allow for sufficient room to expand processes during differentiation. We plated cells in serum-free medium lacking OPC mitogens (no PDGF or FGF) to allow a basal level of OL differentiation to commence, and as a positive control added thyroid hormone (T3, 40 ng/ml) to accelerate differentiation (Fig. 1, flow scheme).
Fig. 1 Flow scheme of the acute OL differentiation assay. a Purified oligodendrocyte precursor cells (OPCs) were cultured from P7 rat cortex and plated into PDL/laminin pre-coated 96-well plates. b One hour later test compounds were added. c OPC cultures with compound were maintained in culture for an additional 4 days. d On the 5th day with compound, cells were fixed and immunostained with anti-MBP antibodies and DAPI. e Images were acquired with automated fluorescence microscopy and scored phenotypically for OL differentiation (see “Methods” section)
To quantify the extent of OL differentiation occurring in treatment conditions, we measured the overall amount of MBP expression/cell (see “Methods” section). Figure 2a depicts the mask created over MBP staining under which the MBP expression was quantified. […]
All animal work was carried out in strict accordance with the recommendations in the Guide for the Care and Use of Laboratory Animals of the National Institutes of Health. The protocol was approved by the Institutional Use and Care and Use Committee at the Molecular Medicine Research Institute (Sunnyvale, CA). Animals used for OPC isolation in these studies were euthanized by decapitation. OPCs from brains of P6-P7 Sprague–Dawley rat pups (Charles River, Wilmington, MA, USA) were enriched by immunopanning as previously described (Dugas et al. 2006). Briefly, single cell suspensions were obtained from papain-digested neonatal brains and depleted of mature glial cells by successive panning with RAN-2- and GalC-coated plates, followed by enrichment for OPCs using O4-coated plates. OPCs were plated in differentiation media (DMEM, 100 U/ml Penicillin/100 µg/ml streptomycin, 2 mM L-glutamine, 1 mM Na pyruvate, 5 µg/ml insulin, 5 µg/ml N-acetyl-L-cysteine, 1× trace elements B,10 ng/ml d-Biotin, 100 µg/ml BSA, 100 µg/ml apo-transferrin, 16 µg/ml putrescine, 60 ng/ml progesterone, 40 ng/ml sodium selenite 5 ng/ml forskolin, 10 ng/ml CNTF, 1 ng/ml NT-3).
Acutely enriched OPCs were plated in differentiation media at 5000 cells/well into PDL/laminin coated 96-well view plates and centrifuged at 200×g to facilitate cell attachment, survival, and even distribution of OPCs. OPCs were pre-incubated for 1–2 h at 37 °C in 10 % CO2, followed by the addition of test compounds in quadruplicate. Controls were added in eight replicate wells, negative control = 0.1 % DMSO; positive control = 40 ng/ml T3. The day of OPC plating was considered DIV0. On DIV4, cells were fixed, immunostained for myelin basic protein (MBP) expression, imaged and quantified as described below.

expanded OPCs = test: cells; settings: for viability at 0.1 µM / viability at 1 µM / viability at 10 µM: Rattus norvegicus, 72 h
Protocol: Having established a consistent assay for measuring OL differentiation in vitro, the next step was to utilize this assay to assess the ability of a wide array of compounds to promote OL differentiation. Prior to library screening, we first established the maximum non-toxic dose of each compound in the library. […] Therefore, we added each compound in the NIH clinical collection (NCC) library to OPCs at 10, 1, and 0.1 µM concentrations. Three days later, we assessed viability of the treated cells by measuring AlamarBlue fluorescence, a measure of cell viability (see “Methods” section). […] Appropriately, we established three sets of screening concentrations for library compounds: non-toxic compounds were tested at 10 and 2 µM, slightly toxic compounds (only toxic at 10 µM) were tested at 2 and 0.4 µM, and very toxic compounds were tested at 0.4 and 0.08 µM.
OPCs were expanded in vitro by seeding into PDL-coated tissue culture flasks at 1000–2000 cells/cm^2 in differentiation media supplemented with 10 ng/ml PDGF-AA. Proliferating OPCs were fed every 2–3 days and supplemented with 2–3× concentration of PDGF as needed to prevent OPC differentiation. After 6–7 days of proliferation, OPCs were harvested by trypsinization, plated into PDL-coated 96-well Falcon plates and centrifuged at 200×g to facilitate cell attachment, survival, and even distribution of cells. Expanded OPCs were seeded in differentiation media at 10,000 cells/well and incubated for 2 h at 37 °C, 10 % CO2 prior to addition of compounds. The NCC library was diluted and added to cells at 10, 1, and 0.1 µM; each concentration was tested in quadruplicate. As a positive control for the induction of toxicity, 5 ng/ml tunicamycin was added to 8 wells in each plate. Three days later, a 1:10 dilution of alamarBlue® (AB) was added to each well and cells were incubated 4 h at 37 °C, 10 % CO2. AB fluorescence was measured using a PerkinElmer Victor II fluorescence microplate reader (PerkinElmer, Waltham, MA) with 560 nm excitation/590 nm emission filters. For library screening, the highest concentration of each compound was adjusted to a minimally toxic concentration based on this toxicity data. Compounds were additionally tested at a second concentration that was 1/5th of the top concentration. The final concentration of DMSO in each well was 0.1 %.

[2] = alamarBlue viability of expanded OPCs, compound at 0.1 µM, relative to DMSO control
[3] = alamarBlue viability of expanded OPCs, compound at 1 µM, relative to DMSO control
[4] = alamarBlue viability of expanded OPCs, compound at 10 µM, relative to DMSO control
[5] = read-out: 0.1 µM (% DMSO), alamarBlue viability of expanded OPCs, compound at 0.1 µM, sheet All Tox data
[6] = read-out: 1 µM (% DMSO), alamarBlue viability of expanded OPCs, compound at 1 µM, sheet All Tox data
[7] = read-out: 10 µM (% DMSO), alamarBlue viability of expanded OPCs, compound at 10 µM, sheet All Tox data
[8] = read-out: 0.1 µM (% DMSO), alamarBlue viability, NCC library compound at 0.1 µM, sheet "All Tox data"
[9] = read-out: 1 µM (% DMSO), alamarBlue viability, NCC library compound at 1 µM, sheet "All Tox data"
[10] = read-out: 10 µM (% DMSO), alamarBlue viability, NCC library compound at 10 µM, sheet "All Tox data"

## Cc1c(C(=O)NN2CCCCC2)nn(-c2ccc(Cl)cc2Cl)c1-c1ccc(I)cc1 [AM 251]
[1]
  0.4 uM (% Quet): -5.0 % Quet
  2 uM (% Quet): -199.0 % Quet

## COc1cccc2c1C(=O)c1c(O)c3c(c(O)c1C2=O)C[C@@](O)(C(=O)CO)C[C@@H]3O[C@H]1C[C@H](N)[C@H](O)[C@H](C)O1 [Adriamycin]
Expanded OPCs; [2]
  0.1 µM (% DMSO): 9.9 % DMSO
Expanded OPCs; alamarBlue viability of expanded OPCs, compound at 0.1 µM, sheet All Tox data
  0.1 µM (% DMSO): 84.2 % DMSO
Expanded OPCs; [3]
  1 µM (% DMSO): 9.6 % DMSO
Expanded OPCs; alamarBlue viability of expanded OPCs, compound at 1 µM, sheet All Tox data
  1 µM (% DMSO): 11.2 % DMSO
Expanded OPCs; [4]
  10 µM (% DMSO): 7.8 % DMSO
Expanded OPCs; alamarBlue viability of expanded OPCs, compound at 10 µM, sheet All Tox data
  10 µM (% DMSO): 11.9 % DMSO

## Nc1ncnc2c1ncn2[C@@H]1O[C@H](CO)C[C@H]1O [Cordycepin]
Expanded OPCs; [5]
  viability at 0.1 µM: 71.9%
Expanded OPCs; [6]
  viability at 1 µM: 38.3%
Expanded OPCs; [7]
  viability at 10 µM: 16%

## C[C@]12CCC(=O)C=C1CC[C@@H]1[C@@H]2C(=O)C[C@@]2(C)[C@H]1CC[C@]2(O)C(=O)CO [Cortisone]
Expanded OPCs; alamarBlue viability, NCC library compound at 0.1 µM, sheet "All Tox data"
  0.1 µM (% DMSO): 99.5 % DMSO
Expanded OPCs; alamarBlue viability, NCC library compound at 1 µM, sheet "All Tox data"
  1 µM (% DMSO): 105.4 % DMSO
Expanded OPCs; alamarBlue viability, NCC library compound at 10 µM, sheet "All Tox data"
  10 µM (% DMSO): 105.4 % DMSO

## Cc1c2oc3c(C)ccc(C(=O)N[C@@H]4C(=O)N[C@H](C(C)C)C(=O)N5CCC[C@H]5C(=O)N(C)CC(=O)N(C)[C@@H](C(C)C)C(=O)O[C@@H]4C)c3nc-2c(C(=O)N[C@@H]2C(=O)N[C@H](C(C)C)C(=O)N3CCC[C@H]3C(=O)N(C)CC(=O)N(C)[C@@H](C(C)C)C(=O)O[C@@H]2C)c(N)c1=O [Dactinomycin] (I: T[dV]P[Sar][NMeV] / II: T[dV]P[Sar][NMeV]; ester I:1-I:C, II:1-II:C; linker I:N-II:N via Actinocin(9to1))
Expanded OPCs; read-out: 0.1 µM (% DMSO)
  viability at 0.1 µM: 10.2%
Expanded OPCs; read-out: 1 µM (% DMSO)
  viability at 1 µM: 11.1%
Expanded OPCs; read-out: 10 µM (% DMSO)
  viability at 10 µM: 12.2%

## COc1cccc2c1C(=O)c1c(O)c3c(c(O)c1C2=O)C[C@@](O)(C(=O)CO)C[C@@H]3O[C@H]1C[C@H](N)[C@H](O)[C@H](C)O1 [Doxorubicin]
Expanded OPCs; [5]
  viability at 0.1 µM: 86.2%
Expanded OPCs; [6]
  viability at 1 µM: 11%
Expanded OPCs; [7]
  viability at 10 µM: 13.4%

## C[C@]12CCC(=O)C=C1CC[C@@H]1[C@@H]2[C@@H](O)C[C@@]2(C)[C@H]1CC[C@]2(O)C(=O)CO [Hydrocortisone]
Expanded OPCs; [2]
  0.1 µM (% DMSO): 122.3 % DMSO and 114.4 % DMSO
Expanded OPCs; [3]
  1 µM (% DMSO): 115.5 % DMSO and 108.5 % DMSO
Expanded OPCs; [4]
  10 µM (% DMSO): 113.8 % DMSO and 107.0 % DMSO

## CC(=O)[C@]1(O)Cc2c(O)c3c(c(O)c2[C@@H](O[C@H]2C[C@H](N)[C@H](O)[C@H](C)O2)C1)C(=O)c1ccccc1C3=O [Idarubicin]
Expanded OPCs; [5]
  viability at 0.1 µM: 13.9%
Expanded OPCs; [6]
  viability at 1 µM: 10.9%
Expanded OPCs; [7]
  viability at 10 µM: 11.4%

## Cc1ccc(NC(=O)c2ccc(CN3CCN(C)CC3)cc2)cc1Nc1nccc(-c2cccnc2)n1 [Imatinib mesylate]
Expanded OPCs; [8]
  viability at 0.1 µM: 93.7%
Expanded OPCs; [9]
  viability at 1 µM: 70.5%
Expanded OPCs; [10]
  viability at 10 µM: 18%

## CN(C)CCCN1c2ccccc2CCc2ccccc21 [Imipramine]
Expanded OPCs; [8]
  viability at 0.1 µM: 79.4%
Expanded OPCs; [9]
  viability at 1 µM: 61.9%
Expanded OPCs; [10]
  viability at 10 µM: 30.6%

## O=C1c2c(O)ccc(O)c2C(=O)c2c(NCCNCCO)ccc(NCCNCCO)c21 [Mitoxantrone]
Expanded OPCs; [2]
  0.1 µM (% DMSO): 9.7 % DMSO
Expanded OPCs; [3]
  1 µM (% DMSO): 9.0 % DMSO
Expanded OPCs; [4]
  10 µM (% DMSO): 7.8 % DMSO
